According to patent US20090029366A1 (priority 2007, published 2009):
Like-named read-outs stand apart in the source and are kept apart here.

Key:
[1] = molecular target: T1, human HCN4 channel (Homo sapiens, UniProt Q9Y3Q4); test: Dose response of blockade of hyperpolarization (MPSD FLIPR), HCN4; type: cell-based
T1 construct: expressed in transfected cells; host or cells: CHO-K1
T1 sequence (Q9Y3Q4 1-1203): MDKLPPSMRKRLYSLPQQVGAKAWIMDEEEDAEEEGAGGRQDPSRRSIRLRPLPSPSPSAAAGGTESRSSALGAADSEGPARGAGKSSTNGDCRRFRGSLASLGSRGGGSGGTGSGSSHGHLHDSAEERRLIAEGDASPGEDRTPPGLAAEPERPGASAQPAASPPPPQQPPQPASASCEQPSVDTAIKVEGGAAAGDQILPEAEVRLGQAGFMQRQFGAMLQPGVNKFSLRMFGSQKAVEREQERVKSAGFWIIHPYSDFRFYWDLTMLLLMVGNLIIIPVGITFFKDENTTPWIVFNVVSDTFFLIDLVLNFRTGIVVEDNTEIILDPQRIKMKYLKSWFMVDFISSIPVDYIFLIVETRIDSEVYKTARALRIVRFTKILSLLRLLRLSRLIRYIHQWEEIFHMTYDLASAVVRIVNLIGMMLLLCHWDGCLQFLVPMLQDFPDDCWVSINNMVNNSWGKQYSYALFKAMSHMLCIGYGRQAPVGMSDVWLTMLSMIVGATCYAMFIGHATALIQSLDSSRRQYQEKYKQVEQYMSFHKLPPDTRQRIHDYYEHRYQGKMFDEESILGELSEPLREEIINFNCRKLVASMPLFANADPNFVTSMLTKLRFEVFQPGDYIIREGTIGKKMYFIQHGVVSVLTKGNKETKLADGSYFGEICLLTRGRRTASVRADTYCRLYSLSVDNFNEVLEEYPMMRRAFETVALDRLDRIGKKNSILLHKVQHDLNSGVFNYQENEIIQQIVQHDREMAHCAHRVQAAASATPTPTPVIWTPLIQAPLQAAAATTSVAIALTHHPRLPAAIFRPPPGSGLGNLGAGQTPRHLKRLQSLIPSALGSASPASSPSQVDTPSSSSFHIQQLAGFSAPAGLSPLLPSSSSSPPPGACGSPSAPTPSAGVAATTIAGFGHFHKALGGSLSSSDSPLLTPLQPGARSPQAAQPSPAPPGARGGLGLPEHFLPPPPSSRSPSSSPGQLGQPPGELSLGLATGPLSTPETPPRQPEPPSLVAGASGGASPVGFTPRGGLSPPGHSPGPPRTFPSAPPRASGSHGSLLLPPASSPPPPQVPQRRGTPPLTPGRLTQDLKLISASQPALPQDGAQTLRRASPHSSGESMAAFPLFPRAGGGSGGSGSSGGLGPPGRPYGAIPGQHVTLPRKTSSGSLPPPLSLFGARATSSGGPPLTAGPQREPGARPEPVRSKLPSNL
Method: HEK-293H cells stably expressing a human HCN1 channel were plated and incubated in HBSS essentially as described in Examples 3 and 5. CHO-K1 cells stably expressing a human HCN4 channel were plated and incubated in HBSS essentially as described in Example 6. Varying concentrations of ZD7288 were added to HBSS for each of the test wells to determine the dose response of cells expressing HCN1 or HCN4 channels. The percent inhibition of hyperpolarization was calculated for a single dose using the following equation:
The data were fit with a Hill equation as described by the ratio 1/(1+([test agent]/IC50)^k, where IC50 is the concentration of a test agent required to inhibit one-half of the maximum current and k is the Hill coefficient.
Similarly, ZD7288 IC50 values on HCN4 channel were determined in a set of two experiments. […] No statistical difference was found between the two experiments.

[2] = molecular target: T2, human HCN2 channel (Homo sapiens, UniProt Q9UL51); test: MPSD FLIPR 384 assay on HEK-293H clones expressing HCN2; type: cell-based; details: 30 μM ZD7288
T2 construct: expressed in transfected cells; host or cells: HEK-293H (clones #4, #8, #11, #12)
T2 sequence (Q9UL51 1-889): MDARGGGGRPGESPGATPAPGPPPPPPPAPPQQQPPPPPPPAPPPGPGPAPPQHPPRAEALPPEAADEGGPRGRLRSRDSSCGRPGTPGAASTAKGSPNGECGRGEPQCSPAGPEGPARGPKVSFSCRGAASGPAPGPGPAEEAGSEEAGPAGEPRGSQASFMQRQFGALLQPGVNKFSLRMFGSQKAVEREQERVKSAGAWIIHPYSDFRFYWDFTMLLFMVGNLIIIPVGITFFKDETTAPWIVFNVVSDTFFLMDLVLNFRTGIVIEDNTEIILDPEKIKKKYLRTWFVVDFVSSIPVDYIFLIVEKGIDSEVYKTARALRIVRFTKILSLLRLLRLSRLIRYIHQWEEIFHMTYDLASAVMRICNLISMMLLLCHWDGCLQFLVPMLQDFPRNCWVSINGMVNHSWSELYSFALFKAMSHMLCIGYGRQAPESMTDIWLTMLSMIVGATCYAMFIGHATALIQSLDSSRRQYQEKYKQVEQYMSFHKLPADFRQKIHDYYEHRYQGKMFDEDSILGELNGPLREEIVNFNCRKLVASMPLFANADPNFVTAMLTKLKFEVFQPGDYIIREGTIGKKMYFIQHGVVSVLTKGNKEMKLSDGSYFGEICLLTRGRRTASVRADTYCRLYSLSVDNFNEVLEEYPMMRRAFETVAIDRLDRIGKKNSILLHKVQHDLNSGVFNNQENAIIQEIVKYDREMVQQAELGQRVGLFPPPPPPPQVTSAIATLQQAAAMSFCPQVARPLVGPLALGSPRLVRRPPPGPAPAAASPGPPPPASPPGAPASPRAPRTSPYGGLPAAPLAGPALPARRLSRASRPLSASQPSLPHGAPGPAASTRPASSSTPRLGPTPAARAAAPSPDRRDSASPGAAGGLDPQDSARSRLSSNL
Method: HEK-293H cells were transfected with constructs encoding a human HCN2 channel essentially as described in Example 1. Cell lines were generated from a single clone according to standard protocols. The cells were incubated in HBSS/MPSD (control cells) or HBSS/MPSD and 30 μM ZD7288 (test cells) using a 384 well plate format, followed by the addition of the sodium/potassium diluent solution essentially as described in Examples 3 and 5. FIGS. 14A-14D show the effect of ZD7288 on each of the four clones expressing HCN2 channels. FIGS. 14A (clone #4), 14B (clone #8), 14C (clone #11), and 14D (clone #12) each depict the change in fluorescence over time for cells incubated in saline only (overlaid lower traces ) and for cells incubated in saline containing the HCN channel inhibitor ZD7288 (overlaid upper traces ). […] The Z-factor was between 0.56 and 0.64, and the covariance (CV) was between from 6.6 to 9.9.

CCN(c1ccccc1)c1cc(=NC)n(C)c(C)n1.Cl [ZD7288]
IC50 ([1]; CHO-K1, group 1, n=8, mean ± 2.31 μM, read-out: IC50 mean, group 1): 9.07 µM | IC50 ([1]; CHO-K1, group 2, n=8, mean ± 2.61 μM, read-out: IC50 mean, group 2): 9.06 µM | blockade of hyperpolarization for each of the HCN2 clones ([2]; 384 well, clones #4, #8, #11, #12): effectively blocked hyperpolarization | Δfluorescence (saline + ZD7288), Mean ([2]; Clone #4, saline only −24421): −2392 RFU | Δfluorescence (saline + ZD7288), Mean ([2]; Clone #8, saline only −23600): −3006 RFU | Δfluorescence (saline + ZD7288), Mean ([2]; Clone #11, saline only −25477): −2413 RFU | Δfluorescence (saline + ZD7288), Mean ([2]; Clone #12, saline only −26367): −4834 RFU
